Results taken from patent US5278191A, “Diphenylmethylaminoacetamide derivatives as anti-convulsants” (G. D. Searle & Co., priority 1991, dated 1994).

How the values were obtained:
[1] = system: 3-mercaptopropionic acid (3-MPA)-induced convulsions; test: 3-MPA-induced convulsions, protection of mice; assay type: in vivo, male Swiss albino mice; details: 3-MPA 120 mg/kg s.c.; for Number of Mice Protected From 3-MPA-Induced Convulsions: total protected of two groups of 5 mice
Experimental: (§1) Treatment of a mammal afflicted by or susceptible to certain CNS disorders is accomplished by administration of a therapeutically-effective amount of a compound of Formula I. In particular, Compounds #1-19 of Tables I and II were evaluated by in vitro and in vivo animal model assays to determine the pharmacological properties of such compounds and their likely suitability for use as therapeutic drugs in humans. These biological assays, as described below, consisted of prevention of induced convulsions in mice, determination of acute toxicity in mice and animal behavior assays. Except as otherwise specified, the animals used in the in vivo tests were male Swiss albino mice weight 22 to 33 g [CD1, Charles River, France], housed in groups of 10 on a 12-hour dark-light cycle for at least one week before use and fasted overnight prior to testing.
Compounds of Formula I were evaluated as inhibitors of convulsions and death induced by different convulsant agents: 3-mercaptopropionic acid (3-MPA; 120 mg/kg subcutaneously), pentylenetetrazole (PTZ, 55 mg/kg intravenously) and supramaximal electroconvulsive shocks (ECS evoked by a current intensity of 48 mA, 50 Hz. 0.2 sec duration, 10 msec square pulse, corneal electrodes) [W. van Dorsser, D. Barris, A. Cordi and J. Roba, Arch. Int. Pharmacodyn., 266, 239-249 (1983)]. The compounds of the invention were administered orally at a dosage of either 100 mg/kg or 30 mg/kg in a volume of 10 ml/kg each to 5 mice at intervals of 30 minutes or 2 hours before convulsions were induced. The number of mice protected against tonic convulsions and the number of dead mice were noted. Results are given in Table III as a score which represents the total number of mice protected for two groups of 5 animals (3-MPA).
(§2) Based upon data generated from the previously-described anti-convulsant experiments, ED50 values were calculated at which Compound #18 inhibits convulsions induced by the convulsant agents listed in Table V.

[2] = Acute toxicity after oral administration; details: mouse, in vivo, mice, mortality over 15 days
Experimental: as §1
(§3) The acute toxicity of compounds of the invention was determined after oral administration of the test compound to mice. Compound to be tested was suspended in a 1% tragacanth gum mucilage, and was administered by means of an intragastric probe to a group of three male mice, which doses varied from 3,000 mg/kg down to about 3 mg/kg. Doses used in the test were determined by observing toxic effects on the mice. The mortality was recorded over a period of 15 days. The LD50 results reported in Table V were calculated according to published methods [Lichtfield and Wilcoxon, J. Pharmacol. Exp. Ther., 96, 99 (1949)] and expressed in mg or test compound per kilogram of mouse body weight.

[3] = system: mice; set-up: species or system male Swiss albino mice; details: mouse, in vivo, po
Experimental: as §1, §3
Behavioral effects of compounds of the invention on animals were determined by observations taken at 5 to 6 hours and at 24 hours after administration of compounds in the acute toxicity studies. Determinations were made based on a method derived from that of S. Irwin [See R. A. Turner, Screening Methods in Pharmacology, Chapter 3, pages 22-34, Academic Press, N.Y. (1965)]. If an anomaly were noted, the observation was extended and smaller doses were tested. Possible types of behavior to be observed are as follows: analgesia (AAG), convulsions (CON), depression (DEP), exophthalmia (EOP), excitation (EXC), hyperalgesia (HAG), hypothermia (ATH), hypotonia (ATN), piloerection (PIE), palpebral ptosis (PTO), reduction of the pinna reflex (RPI), reduction of the rearing reflex (RRE), reduction of the flexion reflex (RRF), sedation (SED), tremors (TRE), cyanosis (CYA), diarrhea (DIA), increase of the pinna reflex (HPI), increase of the flexion reflex (HRF), dyspnea (DYS). Behaviors observed are reported in Table IV by numbers which represent the dose at which the behavior is observed.

[4] = system: supramaximal electroconvulsive shocks (ECS)-induced convulsions; test: Supramaximal electroconvulsive shock (ECS) induced convulsions; assay type: in vivo, male Swiss albino mice; details: Mus musculus; oral; ECS 48 mA, 50 Hz, 0.2 sec; read-out: Inhibition of Convulsions (ED50), ECS
Experimental: as §1, with “Except as otherwise specified, the animals used in the in vivo tests were male Swiss albino mice weight 22 to 33 g [CD1, Charles River, France], housed in groups of 10 on a 12-hour dark-light cycle for at least one week before use and fasted overnight prior to testing.” left out
(§4) Compounds of Formula I were evaluated as inhibitors of convulsions and death induced by different convulsant agents: 3-mercaptopropionic acid (3-MPA; 120 mg/kg subcutaneously), pentylenetetrazole (PTZ, 55 mg/kg intravenously) and supramaximal electroconvulsive shocks (ECS evoked by a current intensity of 48 mA, 50 Hz. 0.2 sec duration, 10 msec square pulse, corneal electrodes) [W. van Dorsser, D. Barris, A. Cordi and J. Roba, Arch. […]
as §2

[5] = system: pentylenetetrazole (PTZ)-induced convulsions; test: Pentylenetetrazole (PTZ) induced convulsions; assay type: in vivo, male Swiss albino mice; details: Mus musculus; oral; PTZ 55 mg/kg i.v.; read-out: Inhibition of Convulsions (ED50), PZT
Experimental: as §1, with “Except as otherwise specified, the animals used in the in vivo tests were male Swiss albino mice weight 22 to 33 g [CD1, Charles River, France], housed in groups of 10 on a 12-hour dark-light cycle for at least one week before use and fasted overnight prior to testing.” left out
as §4, §2

[6] = system: afterdischarge-like spike activity; test: Chronic focal epilepsy assay (cobalt powder on frontal cortex, EEG); assay type: in vivo; details: intraperitoneal, rat
Description: In a model of chronic focal epilepsy where cobalt powder is placed on rat frontal cortex, the animals develop, after several days, chronic expression of afterdischarge-like spike activity which can be recorded by EEG.

[7] = system: 5HTP-induced head twitch; test: 5HTP-induced head twitch; assay type: in vivo, mice
Experimental: as §1
Compound #18 was evaluated for inhibition of head twitches produced in mice by administration of L-5-hydroxytryptophan (5HTP, 10 mg/kg intraperitoneously) after nialamide treatment (50 mg/kg intraperitoneal, 22 hours before the test). The head twitches were counted for 45 min. starting 15 min. after 5HTP administration. [E. Friedmann & al.; Europ. J. Pharmocol., 89, 69-76 (1983)].

[8] = system: hypomotility induced by the α2 agonist clonidine; test: Clonidine-induced hypomotility; assay type: in vivo; details: 10 mg/kg; clonidine 150 mg/kg i.p.; eight mice, 90 min after clonidine
Experimental: as §1
Given alone, clonidine inhibits spontaneous locomotor and rearing activity. Eight test mice were treated with Compound #18 and subsequently with clonidine ([…], intraperitoneal). Then, 90 min. after clonidine administration the mice were placed in a rectangular open field of 47×53 cm, having a floor divided into 36 boxes of about 8×9 cm. The number of boxes through which the animal goes in 3 min. and the number of rearing episodes were noted.

SMILES | Number of Mice Protected From 3-MPA-Induced Convulsions ([1]; oral 30 mpk, interval 30 min) [mice] | LD50 at 360 h [2] [mg/kg] | Behavior: dose at which sedation (SED) is observed [3] [mg/kg] | Number of Mice Protected From 3-MPA-Induced Convulsions ([1]; oral 100 mpk, interval 30 min) [mice] | further results
NC(=O)CNC(c1ccc(F)cc1)c1ccccc1F (stereo not shown) [Compound 11, 2-[(4-fluorophenyl)(2-fluorophenyl)]methylaminoacetamide] | 8 | 315 | 100 |  | Behavior: dose at which convulsions (CON) are observed [3]: 1000 mg/kg; Behavior: dose at which depression (DEP) is observed [3]: 1000 mg/kg
NC(=O)CNC(c1ccccc1)c1ccc(Cl)cc1 (stereo not shown) [Compound 1, 2-[(4-chlorophenyl)phenyl]methylaminoacetamide] |  | 2400 | 1000 | 9 | Behavior: dose at which convulsions (CON) are observed [3]: 1000 mg/kg; Behavior: dose at which hypotonia (ATN) is observed [3]: 1000 mg/kg
NC(=O)CNC(c1ccccc1)c1ccc(C(F)(F)F)cc1 (stereo not shown) [Compound 7, 2-[(4-trifluoromethylphenyl)phenyl]methylaminoacetamide] | 4 |  |  |  | 
NC(=O)CNC(c1ccccc1)c1ccccc1 [Compound 18, 2-diphenylmethylaminoacetamide] | 9 | 1020 |  | 10 | ED50 ([1]; Mus musculus, oral, read-out: Inhibition of Convulsions (ED50), 3-MPA): 9.3 mg/kg; Number of Mice Protected From 3-MPA-Induced Convulsions ([1]; oral 100 mpk, interval 2 hr): 10 mice; ED50 [4]: 26 mg/kg; ED50 [5]: 66 mg/kg; Behavior: dose at which depression (DEP) is observed [3]: 1000 mg/kg; Behavior: dose at which palpebral ptosis (PTO) is observed [3]: 1000 mg/kg; time over which inhibition of spike activities was observed ([6]; threshold dose of 50 mg/kg): 14 to 90 min; minimal effective dose ([6]; ip, read-out: threshold dose for inhibiting spike activities): 50 mg/kg; ED50 ([7]; Mus musculus, po, 2 hours before 5HTP (10 mg/kg i.p.), nialamide pretreated mice, read-out: ED50 for inhibition of 5HTP-induced head twitches): 10 mg/kg; effect on 5HTP-induced head twitch ([7]; mice, nialamide treatment): inhibited 5HTP-induced head twitch; effect on clonidine-induced hypomotility [8]: seems unable to alter the hypomotility
NC(=O)CNC(c1ccc(Cl)cc1)c1ccc(Cl)cc1 [Compound 8, 2-[di(4-chlorophenyl)]methylaminoacetamide] | 1 |  |  |  | 
NC(=O)CNC(c1ccccc1)c1ccc(F)cc1 (stereo not shown) [Compound 12, 2-[(4-fluorophenyl)phenyl]methylaminoacetamide] | 9 |  |  | 10 | 
NC(=O)CNC(c1ccccc1)c1ccc(Br)cc1 (stereo not shown) [Compound 10, 2-[(4-bromophenyl)phenyl]methylaminoacetamide] | 3 | > 1000 | 1000 |  | 
CCCCCNCC(N)=O [2-pentylaminoacetamide, reference compound] |  |  |  |  | effect on 5HTP-induced head twitch (comparison compound) ([7]; under similar test conditions): potentiates 5HTP-induced head twitch
Cc1ccc(C(NCC(N)=O)c2ccccc2)c(C)c1 (stereo not shown) [Compound 14, 2-[(2,4-dimethylphenyl)phenyl]methylaminoacetamide] | 3 |  |  | 6 | 
NC(=O)CNC(c1ccc(F)cc1)c1ccccc1Cl (stereo not shown) [Compound 17, 2-[(2-chlorophenyl)(4-fluoropheny)]methylaminoacetamide] |  |  |  | 10 | 
Cc1ccccc1C(NCC(N)=O)c1ccccc1 (stereo not shown) [Compound 4, 2-[(2-methylphenyl)phenyl]methylaminoacetamide] | 5 | 780 | 300 |  | Behavior: dose at which hypotonia (ATN) is observed [3]: 300 mg/kg
Cc1ccc(C)c(C(NCC(N)=O)c2ccccc2)c1 (stereo not shown) [Compound 9, 2-[(2,5-dimethylphenyl)phenyl]methylaminoacetamide] | 1 |  |  |  | 
Cc1ccc(C(NCC(N)=O)c2ccccc2)cc1C (stereo not shown) [Compound 6, 2-[(3,4-dimethylphenyl)phenyl]methylaminoacetamide] | 2 | 3500 | 3000 |  | Behavior: dose at which hypotonia (ATN) is observed [3]: 3000 mg/kg
NC(=O)CNC(c1ccccc1)c1cccc(Cl)c1 (stereo not shown) [Compound 15, 2-[(3-chlorophenyl)phenyl]methylaminoacetamide] |  |  |  | 9 | 
NC(=O)CNC(c1ccc(F)cc1)c1ccc(F)cc1 [Compound 13, 2-[di(4-fluorophenyl)]methylaminoacetamide] | 5 |  |  |  | 
Cc1ccc(C(NCC(N)=O)c2ccccc2)cc1 (stereo not shown) [Compound 3, 2-[(4-methylphenyl)phenyl]methylaminoacetamide] | 1 | > 3000 | 1000 |  | Behavior: dose at which depression (DEP) is observed [3]: 3000 mg/kg
NC(=O)CNC(c1ccccc1)c1ccccc1Cl (stereo not shown) [Compound 16, 2-[(2-chlorophenyl)phenyl]methylaminoacetamide] |  |  |  | 9 | 
Cc1cccc(C(NCC(N)=O)c2ccccc2)c1 (stereo not shown) [Compound 5, 2-[(3-methylphenyl)phenyl]methylaminoacetamide] | 2 | 3500 | 1000 |  | 
COc1ccc(C(NCC(N)=O)c2ccccc2)cc1 (stereo not shown) [Compound 2, 2-[(4-methoxyphenyl)phenyl]methylaminoacetamide] |  |  |  | 8 | 
